Source: patent US20230270871A1, “MARKERS FOR USE IN METHODS FOR TREATING CANCERS WITH ANTIBODY DRUG CONJUGATES (ADC)” (AGENSYS, INC., priority 2020, published 2023)
Where a SMILES comes first, the peptide text is derived from it. [ ]: non-standard residue; d: D form. The star is where a group is joined. Dolaproine = CO[C@@H]([C@@H]1CCCN1)[C@@H](C)C(=O)O; Dil = CC[C@H](C)[C@H](NC)[C@@H](CC(=O)O)OC; X1 = C[C@@H](N*)[C@@H](O)c1ccccc1; NMeV = CN[C@H](C(=O)O)C(C)C

How the values were obtained:
[1] = test system: T-24-Nectin-4 cells; assay: ICD cell surface markers (calreticulin, HSP70); assay type: cell-based, human; details: anti-nectin-4 ADC 1 ug/mL, MMAE 100 nM, compared with untreated or control hIgG-MMAE (1 mg/mL)
Excerpt: FIG. 4A is a cartoon representation of the release of ATP and HMGB1 by cells treated with an anti-nectin-4 ADC and the effects of the released ATP and HMGB1 on macrophages. FIG. 4B is a cartoon representation of the release of ATP and HMGB1 by cells treated with an anti-nectin-4 ADC, the activation of the immune cells by the ATP and HMGB1, and the potential immunogenic cell death or immunogenic cell killing by the activated immune cells. FIG. 4C depicts ATP release in control T-24 cells and T-24 cells expressing nectin-4 after various treatments as indicated. FIG. 4D depicts ATP release in control UM-UC-3 cells and UM-UC-3 cells expressing nectin-4 after various treatments as indicated. FIG. 4E depicts HMGB1 release in control T-24 cells and T-24 cells expressing nectin-4 after various treatments as indicated. FIGS. 4F and 4G depict cell surface calreticulin (4F) and HSP70 (4G), respectively, in cells upon various treatments as indicated. Increase in ICD cell surface markers such as calreticulin or HSP70 can be detected on T-24-Nectin-4 cells upon treatment with an anti-nectin-4 ADC (1 ug/mL) or MMAE (100 nM) compared with untreated or treatment with the control hIgG-MMAE (1 mg/mL). In FIGS. 4C to 4G, EV and AGS-22C3E indicate the same anti-nectin-4 ADC.

[2] = test system: phospho-JNK; assay: Phospho-JNK western blot; assay type: cell-based; details: FIG. 9C
Protocol: T-24 Nectin-4 (clone1A9) cells were treated with an anti-nectin-4 ADC (AGS-22C3E) for 48 hours and stained with β-tubulin for microtubules and DAPI, a nuclear DNA stain. FIGS. 9B and 9C depict activation of phospho-INK in response to the treatment with an anti-nectin-4 ADC (AGS-22C3E). In FIG. 9B, western blots show an increase in phospho-JNK over a period of 48 hours upon treatment with an anti-nectin-4 ADC (AGS-22C3E) at 1 ug/mL). In FIG. 9C, Phosphorylation of JNK is observed in treatment with an anti-nectin-4 ADC (AGS-22C3E) and MMAE but absent in untreated or non-binding ADC control.

[3] = test system: phospho-JNK; assay: ER stress, phospho-JNK activation; assay type: cell-based
[4] = test system: acute myeloid leukemia (AML) at relapse; details: administered alone; cited from earlier work
[5] = target: T1, human Nectin-4 (human, UniProt Q96NY8 32-510); assay: cell-based or functional assay
T1 sequence: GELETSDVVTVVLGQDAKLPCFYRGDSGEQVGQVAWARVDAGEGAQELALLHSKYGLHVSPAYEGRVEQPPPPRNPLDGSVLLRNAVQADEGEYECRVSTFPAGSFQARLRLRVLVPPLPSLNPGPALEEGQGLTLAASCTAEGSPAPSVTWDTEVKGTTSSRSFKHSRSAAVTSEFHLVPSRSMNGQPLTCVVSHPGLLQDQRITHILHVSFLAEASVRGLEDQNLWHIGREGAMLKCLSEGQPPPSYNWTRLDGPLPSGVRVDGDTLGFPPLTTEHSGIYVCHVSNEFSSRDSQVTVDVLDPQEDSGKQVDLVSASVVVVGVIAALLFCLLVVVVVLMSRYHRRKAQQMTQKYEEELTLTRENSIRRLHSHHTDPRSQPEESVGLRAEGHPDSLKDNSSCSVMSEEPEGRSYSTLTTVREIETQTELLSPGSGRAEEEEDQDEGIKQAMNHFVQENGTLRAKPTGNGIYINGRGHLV

CC[C@H](C)[C@@H]([C@@H](CC(=O)N1CCC[C@H]1[C@H](OC)[C@@H](C)C(=O)N[C@H](C)[C@@H](O)c1ccccc1)OC)N(C)C(=O)[C@@H](NC(=O)[C@@H](NC)C(C)C)C(C)C [MMAE, monomethyl auristatin E] (H-[NMeV]V[Dil][Dolaproine]-X1)
cell surface calreticulin (ICD marker) ([1]; FIG. 4F): Increase | cell surface HSP70 (ICD marker) ([1]; FIG. 4G): Increase | phosphorylation of JNK [2]: observed | phospho-JNK activation [3]: activates phospho-JNK

CT-011: anti-PD-1 antibody, a humanized antibody
response in AML at relapse [4]: failed to show response

B1: enfortumab vedotin (antibody, human IgG1, kappa, V domains shown)
VH: EVQLVESGGGLVQPGGSLRLSCAASGFTFSSYNMNWVRQAPGKGLEWVSYISSSSSTIYYADSVKGRFTISRDNAKNSLSLQMNSLRDEDTAVYYCARAYYYGMDVWGQGTTVTVSS
VL: DIQMTQSPSSVSASVGDRVTITCRASQGISGWLAWYQQKPGKAPKFLIYAASTLQSGVPSRFSGSGSGTDFTLTISSLQPEDFATYYCQQANSFPPTFGGGTKVEIKR
modifications: MMAE conjugated via a protease-cleavable maleimidocaproyl valine-citrulline (vc) linker on cysteine residues that comprise the interchain disulfide bonds; drug-to-antibody ratio approximately 3.8:1
Enfortumab vedotin Cytotoxicity IC50 (T-24 Nectin-4 Clone 1A9 cells; cell viability by CELL TITER-GLO 120 hours post-treatment) [5]: 0.085 mg/L | Enfortumab vedotin Cytotoxicity IC50 (UM-UC-3 Nectin-4 Clone 1D11 cells; cell viability by CELL TITER-GLO 120 hours post-treatment) [5]: 0.006 mg/L
